Data set [1] concerns smooth muscle of the guinea-pig vas deferens, KCl responses. The experiment in a line: KCl-induced contraction of isolated vas deferens (specificity of AAH). In kind it is cell-based. As to the method: (§1) The tissues were washed every 15 minutes. Resting tension was 200 mg.
(§2) The effects of AAH on the response of the smooth muscle of the guinea-pig vas deferens to several agonists were examined using the following protocols.
(§3) Effect of AAH after photoactivation. While in the organ bath, one tissue of a pair was exposed to AAH for 5 minutes. The preparation was then irradiated with a tungsten-halogen projector lamp (DVY, 650 W, 3400° K., filament ca. 10 cm from the tissue) for 5 minutes. Bath temperature remained at 37° C. during irradiation. At the end of irradiation the tissues were washed twice with fresh Krebs-Kenseleit solution lacking AAH. Concentration-response determinations were begun 10 minutes after irradiation. Contralateral control tissues were irradiated in the absence of AAH and otherwise handled identically. […] Also shown is the time-course of the decline of absorbance at 266 nm. The native spectrum, consisting of a pronounced peak at 266 nm, shoulder at 286 and broad peak at 480-485 nm, was changed by photolysis in a time-dependent manner to one with several smaller peaks and troughs.
(§4) Effect of AAH without photoactivation. Two types of experiments were performed with non-irradiated AAH. In the first type, the test tissue was exposed to AAH for 10 minutes but not irradiated during the latter five minutes; the AAH was washed out before agonist agents were added. That is, the same schedule as was used above was employed, but the preparations were not irradiated. In the second type of experiment with non-irradiated AAH, the compound was added to the bath 15 minutes before and remained present during the addition of agonists. The contralateral control tissues for these experiments received no treatment.

Data set [2] relates to smooth muscle of the guinea-pig vas deferens, MgATP responses. The data set is described as follows: MgATP-induced contraction of isolated vas deferens (specificity of AAH). The format is cell-based. Particulars: 3×10^-5 M AAH. The protocol:
as §1, §2, §3
(§5) Effect of AAH without photoactivation. Two types of experiments were performed with non-irradiated AAH. In the first type, the test tissue was exposed to AAH for 10 minutes but not irradiated during the latter five minutes; the AAH was washed out before agonist agents were added. […]

Data set [3] relates to smooth muscle of the guinea-pig vas deferens, norepinephrine responses. The data set is described as follows: Norepinephrine-induced contraction of isolated vas deferens (specificity of AAH). In kind it is cell-based. Particulars: 3×10^-5 M AAH. As to the method: as §1, §2, §3, §5
In data set [4] the test system is smooth muscle of the guinea-pig vas deferens, acetylcholine responses. The data set is described as follows: Acetylcholine-induced contraction of isolated vas deferens (specificity of AAH). In kind it is cell-based. The protocol:
as §1, §2, §3, §4

Data set [5] can be described thus: Photolysis of AAH (absorbance decline at 266 nm). The format is physicochemical. The protocol: FIG. 1 is spectra of 3×10^-5 M AAH (dissolved in modified Krebs-Henseleit solution) sampled before (solid line) and 5 minutes (dashed line) and 60 minutes (dotted line) after the beginning of irradiation. The reference cuvette contained modified Krebs-Henseleit solution. The inset illustrates the time-course of decline in absorbance a 266 nm; data points were obtained from scans performed after the irradiation intervals shown.
as §3

The test system of the next data set is guinea pig vas deferens. The experiment in a line: Direct contractile effect on isolated vas deferens. In kind it is cell-based. Particulars: AAH in the concentrations used. The protocol:
as §1

Data set [6] addresses T1, histamine receptor (H1), isolated guinea pig vas deferens (Cavia porcellus, UniProt P31389). The experiment in a line: Histamine-induced contraction of isolated vas deferens after photolysis and washout of AAH. The format is cell-based. Set-up: smooth muscle of the guinea-pig vas deferens; from tissue; host or cells: isolated, desheathed vas deferens of adult albino guinea pigs (Hilltop Lab Animals, Scottdale, PA). As to the method: as §1, §2, §3

For data set [7], the target named is T1, histamine receptor (H1), isolated guinea pig vas deferens. The experiment in a line: Histamine-induced contraction of isolated vas deferens after incubation with non-irradiated AAH and washout. The format is cell-based. Set-up: smooth muscle of the guinea-pig vas deferens; from tissue; host or cells: isolated, desheathed vas deferens of adult albino guinea pigs (Hilltop Lab Animals, Scottdale, PA). Particulars: 3×10^-5 M AAH, 10 min incubation, not photoactivated, washed out. The protocol:
as §1, §2, §4

The target is the same in data set [8]. The data set is described as follows: Histamine-induced contraction of isolated vas deferens in the continual presence of non-irradiated AAH. The format is cell-based. Set-up: smooth muscle of the guinea-pig vas deferens; from tissue; host or cells: isolated, desheathed vas deferens of adult albino guinea pigs (Hilltop Lab Animals, Scottdale, PA). As to the method:
as §1, §2, §4

Data set [9] has the same target. The data set is described as follows: cell-based. Set-up: Emax: dose or concentration left out as unconfirmed. The protocol: Adult, albino guinea pigs (250-350 g; Hilltop Lab Animals, Scottdale, PA) were killed by a blow to the head. Vasa deferentia were removed, desheathed and mounted in conventional apparatus for the measurement of isometric contractile responses. Each tissue preparation was bathed in a separate glass, water-jacketed organ chamber containing modified Krebs-Henseleit solution (37° C.) for one hour prior to the beginning of the experiment. The tissues were washed every 15 minutes. Resting tension was 200 mg. Agonist agents were added to the bath with stepwise increases in concentration. The agonists were added at 10 minute intervals and the tissues were exposed to each concentration for 2 minutes; the tissues were washed twice with agonist-free Krebs-Henseleit solution, at 5 minute intervals, between agonist additions.
Effect of AAH after irradiation in the presence of histamine receptor ligands. […] AAH was then added to the test tissue, leaving the control exposed only to ligand, and after a 5-minute incubation, both the test and control tissues were irradiated for 5 minutes. Both tissues were washed twice with fresh Krebs-Henseleit solution to remove all agents, and concentration-response determinations were performed 10 minutes after irradiation.

Setting [10] is: 3×10^-5 M AAH, non-irradiated, continually present.
[11] abbreviates: 3×10^-5 M AAH, photoactivated, washed out.
Setting [12] is: non-irradiated, continually present.
The mark [13] stands for this setting: 3×10^-6 M AAH, photolyzed, washed out.
Setting [14] is: 10^-5 M AAH, photolyzed, washed out.

Read-outs that look alike come from different tables or passages of the source.

One may read the EC50 as the concentration at which the effect is half-maximal.

T1 sequence (P31389 whole entry): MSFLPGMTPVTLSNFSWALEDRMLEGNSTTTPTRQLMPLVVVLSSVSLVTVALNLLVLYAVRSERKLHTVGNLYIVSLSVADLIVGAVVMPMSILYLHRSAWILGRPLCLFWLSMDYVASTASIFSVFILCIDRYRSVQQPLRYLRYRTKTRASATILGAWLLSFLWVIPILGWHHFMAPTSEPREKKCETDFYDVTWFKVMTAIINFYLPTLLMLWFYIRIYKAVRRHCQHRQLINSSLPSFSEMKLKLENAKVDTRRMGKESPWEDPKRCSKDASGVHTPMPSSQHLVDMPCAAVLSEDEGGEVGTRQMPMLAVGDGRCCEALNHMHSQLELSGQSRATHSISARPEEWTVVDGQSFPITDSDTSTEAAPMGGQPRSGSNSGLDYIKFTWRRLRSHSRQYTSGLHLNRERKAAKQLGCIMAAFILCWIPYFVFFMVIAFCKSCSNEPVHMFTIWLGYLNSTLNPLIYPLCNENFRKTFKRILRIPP

Consider `[N-]=[N+]=Nc1ccc(NCCc2c[nH]cn2)c([N+](=O)[O-])c1` [AAH, 4(5)-[2-(4-azido-2-nitroanilino)ethyl]imidazole], for which, in [1] (setting [10]), the “effect on concentration-response relationship for KCl” value is recorded as “no significant effect on concentration-response relationships”. The “effect on maximum responses or EC50's of KCl” value in data set [1] (setting [11]) is recorded as “no effect on the maximum responses or EC50's”. Also, the EC50 came to 15.3 mM in data set [1] (Cavia porcellus, light or radiation study, read-out: EC50 of KCl, AAH, 3×10^-5 M AAH, non-irradiated, continually present) and 19.5 mM in data set [1] (Cavia porcellus, light or radiation study, read-out: EC50 of KCl, AAH, 3×10^-5 M AAH, photoactivated, washed out). Further, in data set [2] (setting [12]), the “shift of MgATP concentration-response curve to the left of control” value is listed as 12.89 fold. Further, the “effect on maximum responses or EC50's of MgATP” value in data set [2] (photoactivated, washed out) is given as “no effect on the maximum responses or EC50's”. Also, in [3] (setting [12]), the “shift of norepinephrine concentration-response curve to the left of control” value is listed as 5.50 fold. The “effect on maximum responses or EC50's of NE” value in data set [3] (photoactivated, washed out) is listed as “no effect on the maximum responses or EC50's”. Further, the “effect on concentration-response relationship for ACh” value in [4] (setting [10]) is recorded as “no significant effect on concentration-response relationships”. Also, in data set [4] (setting [11]), the “effect on the maximum response to ACh” value is recorded as “no effect on the maximum response to ACh”. Also, in data set [4] (setting [11]), the “shift of the ACh concentration-response curve to the right of control” value is on record as 3.07 fold. In [4] (photolyzed AAH), the “responses to acetylcholine after photolysis of AAH” value is “only slightly reduced”. Further, in data set [5] (3×10^-5 M AAH, modified Krebs-Henseleit solution, tungsten-halogen lamp 650 W, read-out: t1/2 of first-order absorbance reduction at 266 nm caused by photolysis), the half-life at 30 µM came to 3.8 min. Moreover, the “percent of the maximum absorbance reduction produced by the 5-minute photoaffinity labeling period” value in data set [5] (5 min irradiation, 266 nm) was “ca. 62%”. In the data set with guinea pig vas deferens, the “contraction upon addition to the organ bath” value is reported as “did not cause a contraction”. In data set [6] (3×10^-5 M AAH, photolyzed), the “reversal of antagonism by repeated washing” value is listed as “not reversed by repeated washing”. Also, the “effect on the response of the tissues to histamine” value was “abolished the response of the tissues to histamine” in data set [6] (3×10^-5 M AAH, photolyzed, washed out); “intermediate and irreversible antagonism” in data set [6] (setting [14]). The “effect on maximum response to histamine” value in [6] (setting [13]) is “small but significant decrease in the maximum response to histamine”. In addition, the “shift of the histamine concentration-response curve to the left of control” value in [6] (setting [13]) came out at 1.89 fold; in data set [8] (3×10^-6 M AAH, non-irradiated, continually present) it was 2.01 fold. The “shape of histamine concentration-response curve” value in data set [6] (setting [14]) is on record as “"bell"-shaped”; in data set [8] (10^-5 M AAH, non-irradiated, continually present), “"bell-shaped" concentration-response curve”. Moreover, the “concentration range over which antagonism by AAH occurred” value in [6] (photolyzed AAH) was found to be 10 fold. For the same compound, the “residual effect on responses to histamine” value in data set [7] is on record as “no residual effect on responses to histamine”. Further, the “effect on the response to histamine” value in data set [8] (setting [10]) is “abolished the response to histamine”. Also, the “concentration range over which antagonism by AAH was observed” value in data set [8] (non-irradiated AAH, continually present) was found to be 10 fold. Further, the “reversibility of antagonism of histamine by non-photolyzed AAH” value in data set [8] (not irradiated) was “reversible if not irradiated”.

As for `[Cl-].[K+]` [KCl, reference compound], the EC50 in data set [1] (irradiated control without AAH, read-out: EC50 of KCl, control) was 20 mM; in data set [1] (non-irradiated control without AAH, read-out: EC50 of KCl, control) it was 25 mM.

In the case of `NCCc1c[nH]cn1` [histamine, 2-(4-imidazolyl)ethylamine], the “protection against AAH-induced antagonism when present during photoactivation of AAH” value in [9] (3×10^-4 M histamine with AAH, n=4) is recorded as “no protective effect”. For the same compound, the Emax in data set [9] (read-out: response of the tissue, % of maximum response to histamine) lay in the range of 90 to 100%.

These data come from patent publication US4357341A, “Specific irreversible antagonism of histamine receptors by photoaffinity actuated compounds” (priority 1981, dated 1982).
